In article PMC4303209, “A novel phosphatidylinositol 3-kinase (PI3K) inhibitor directs a potent FOXO-dependent, p53-independent cell cycle arrest phenotype characterized by the differential induction of a subset of FOXO-regulated genes” (Breast Cancer Research : BCR, 2014):

System: MCF-7 breast cancer cells
Assay: Microarray gene expression analysis (Agilent whole human genome 4 x 44K; compound vs DMSO, LIMMA log2 fold change)
Format: cell-based
Details: cell cycle genes

Oc1cccc(-c2nc(N3CCOCC3)c3oc4ncccc4c3n2)c1 [PI-103]
MLF1 log2FC (Gene 4291): 0.58
MLH1 log2FC (Gene 4292): 0.34
MAP3K11 log2FC (Gene 4296): -0.58
MNAT1 log2FC (Gene 4331): 0.59
MNT log2FC (Gene 4335): 1.54
MOS log2FC (Gene 4342): -0.08
MRE11A log2FC (Gene 4361): 0.27
MSH2 log2FC (Gene 4436): 0.79
MSH3 log2FC (Gene 4437): 0.54
MSH4 log2FC (Gene 4438): -0.0458
MSX1 log2FC (Gene 4487): -0.24
MSX2 log2FC (Gene 4488): 0.05
MUC1 log2FC (Gene 4582): -0.28
TRIM37 log2FC (Gene 4591): 0.67
MX2 log2FC (Gene 4600): -0.08
MYB log2FC (Gene 4602): 0.51
MYBL2 log2FC (Gene 4605): -0.39
MYC log2FC (Gene 4609): 0.42
GADD45B log2FC (Gene 4616): 0.86
MYH9 log2FC (Gene 4627): -0.23
MYH10 log2FC (Gene 4628): -0.0425
PPP1R12A log2FC (Gene 4659): 0.42
PPP1R12B log2FC (Gene 4660): 0.33
NUBP1 log2FC (Gene 4682): -0.22
NBN log2FC (Gene 4683): 0.62
NEDD9 log2FC (Gene 4739): 0.0368
NEK1 log2FC (Gene 4750): 0.57
NEK2 log2FC (Gene 4751): 1.00
NEUROD1 log2FC (Gene 4760): 0.04
NGFR log2FC (Gene 4804): -0.07
NOTCH2 log2FC (Gene 4853): 0.27
NPAT log2FC (Gene 4863): 0.48
NPM1 log2FC (Gene 4869): 0.28
NUP88 log2FC (Gene 4927): 0.08
ODF2 log2FC (Gene 4957): -0.13
OSM log2FC (Gene 5008): -0.00804
OVOL1 log2FC (Gene 5017): -0.06
PAFAH1B1 log2FC (Gene 5048): 0.72
PAK1 log2FC (Gene 5058): 0.07
PAK3 log2FC (Gene 5063): 0.09
PCM1 log2FC (Gene 5108): 0.63
PCNT log2FC (Gene 5116): 0.45
PDGFB log2FC (Gene 5155): -0.24
PDGFRB log2FC (Gene 5159): 0.0243
PGGT1B log2FC (Gene 5229): -0.28
ABCB1 log2FC (Gene 5243): -0.02
PIK3C3 log2FC (Gene 5289): 1.00
PIM1 log2FC (Gene 5292): 1.29
PIN1 log2FC (Gene 5300): -0.0472
PKD1 log2FC (Gene 5310): 0.37
PKD2 log2FC (Gene 5311): 0.13
PKHD1 log2FC (Gene 5314): -0.09
PLAGL1 log2FC (Gene 5325): 0.32
PML log2FC (Gene 5371): -0.41
PMS1 log2FC (Gene 5378): 0.55
PMS2 log2FC (Gene 5395): 0.12
POLD1 log2FC (Gene 5424): 0.33
POLE log2FC (Gene 5426): -0.10
PPAT log2FC (Gene 5471): 0.07
PPM1A log2FC (Gene 5494): 0.27
PPP1CB log2FC (Gene 5500): 0.81
PPP1CC log2FC (Gene 5501): 0.33
PPP2R1A log2FC (Gene 5518): 0.06
PPP2R2A log2FC (Gene 5520): -0.06
PPP2R4 log2FC (Gene 5524): -0.32
PPP2R5C log2FC (Gene 5527): 0.78
PPP3CA log2FC (Gene 5530): 0.45
PPP5C log2FC (Gene 5536): -0.24
PPP6C log2FC (Gene 5537): -0.35
PRCC log2FC (Gene 5546): -0.66
PRIM1 log2FC (Gene 5557): 0.46
PRKAA1 log2FC (Gene 5562): 0.30
PRKAA2 log2FC (Gene 5563): 0.07
PRKAB1 log2FC (Gene 5564): 0.25
PRKAB2 log2FC (Gene 5565): 0.81
PRKACA log2FC (Gene 5566): -0.35
PKIA log2FC (Gene 5569): -0.29
PRKAG1 log2FC (Gene 5571): 0.09
PRKAR1A log2FC (Gene 5573): 0.45
PRKAR2B log2FC (Gene 5577): 0.43
PRKCA log2FC (Gene 5578): -0.16
PRKCD log2FC (Gene 5580): 0.12
PRKCE log2FC (Gene 5581): -0.00329
PKN2 log2FC (Gene 5586): 0.51
MAPK1 log2FC (Gene 5594): 0.0165
MAPK3 log2FC (Gene 5595): -0.12
MAPK13 log2FC (Gene 5603): -0.17
MAP2K1 log2FC (Gene 5604): -0.23
MAP2K6 log2FC (Gene 5608): 0.36
PROX1 log2FC (Gene 5629): -0.08
KLK10 log2FC (Gene 5655): -0.42
PSMA1 log2FC (Gene 5682): -0.03
PSMA4 log2FC (Gene 5685): 0.47
PSMA6 log2FC (Gene 5687): 0.07
PSMB1 log2FC (Gene 5689): 0.00908
PSMB2 log2FC (Gene 5690): -0.43
PSMB3 log2FC (Gene 5691): 0.0534
PSMB5 log2FC (Gene 5693): -0.22
PSMB6 log2FC (Gene 5694): -0.08
PSMB8 log2FC (Gene 5696): -0.00568
PSMC1 log2FC (Gene 5700): -0.00867
PSMC2 log2FC (Gene 5701): 0.28
PSMC5 log2FC (Gene 5705): -0.31
PSMC6 log2FC (Gene 5706): 0.52
PSMD2 log2FC (Gene 5708): 0.00374
PSMD3 log2FC (Gene 5709): -0.0745
PSMD4 log2FC (Gene 5710): -0.0364
PSMD5 log2FC (Gene 5711): 0.19
PSMD7 log2FC (Gene 5713): 0.00364
PSMD9 log2FC (Gene 5715): -0.40
PSMD12 log2FC (Gene 5718): -0.77
PSMD13 log2FC (Gene 5719): -0.17
PSME2 log2FC (Gene 5721): 0.04
PTEN log2FC (Gene 5728): 0.96
PTGS2 log2FC (Gene 5743): -0.0533
PTPN3 log2FC (Gene 5774): -0.31
PTPN6 log2FC (Gene 5777): 0.26
PTPRC log2FC (Gene 5788): -0.0261
PTPRK log2FC (Gene 5796): 0.72
RAD1 log2FC (Gene 5810): -0.29
RAD9A log2FC (Gene 5883): 0.68
RAD17 log2FC (Gene 5884): 1.15
RAD21 log2FC (Gene 5885): 0.83
RAD51 log2FC (Gene 5888): -0.29
RAD52 log2FC (Gene 5893): 0.14
RAN log2FC (Gene 5901): -0.14
RANBP1 log2FC (Gene 5902): -0.10
RANBP2 log2FC (Gene 5903): 0.42
RARA log2FC (Gene 5914): -0.31
RASA1 log2FC (Gene 5921): 0.47
RB1 log2FC (Gene 5925): 0.67
RBL2 log2FC (Gene 5934): 0.41
RFC1 log2FC (Gene 5981): 1.04
RFC2 log2FC (Gene 5982): -0.10
RFC5 log2FC (Gene 5985): 0.15
RGS2 log2FC (Gene 5997): -2.43
RHEB log2FC (Gene 6009): 0.40
RNF2 log2FC (Gene 6045): -0.11
RNF4 log2FC (Gene 6047): -0.48
RPA3 log2FC (Gene 6119): 0.23
RPS6KA2 log2FC (Gene 6196): 0.19
RPS6KA3 log2FC (Gene 6197): 0.27
RPS15A log2FC (Gene 6210): 0.48
RPS27 log2FC (Gene 6232): 0.35
RPS27A log2FC (Gene 6233): 0.45
RRM1 log2FC (Gene 6240): 0.36
RRM2 log2FC (Gene 6241): -0.81
SETMAR log2FC (Gene 6419): -0.16
SIAH2 log2FC (Gene 6478): -0.48
SKP2 log2FC (Gene 6502): -1.28
SMARCA4 log2FC (Gene 6597): -0.39
SOX2 log2FC (Gene 6657): 0.23
SOX9 log2FC (Gene 6662): -2.01
SPAST log2FC (Gene 6683): 0.37
SPTBN1 log2FC (Gene 6711): 0.11
SRPK2 log2FC (Gene 6733): 0.78
TRIM21 log2FC (Gene 6737): 0.02
